# Laboratory results from article PMC5653814, “Regiospecific Synthesis of Ring A Fused Withaferin A Isoxazoline Analogues: Induction of Premature Senescence by W-2b in Proliferating Cancer Cells” (Scientific Reports, 2017).
# Like-named read-outs stand apart in the source and are kept apart here.
# Experiments:
# [1] = test system: 4T1 mouse mammary carcinoma; assay: In vivo tumor growth, 4T1 mouse mammary carcinoma model; conditions: 25 mg/kg b.w. intraperitoneal
# Description: The experiment was performed according to the pre-standardized protocol with minor modifications. To evaluate the in vivo anti-tumor efficacy of W-2b, healthy female Balb/c mice (25–30 g) were taken. Animals were randomized into three groups, and six animals were taken per group. For the tumor cells implantation, mouse mammary carcinoma 4T1 cells (1 × 10^6 per 200 μL) diluted in serum-free RPMI medium were injected subcutaneously into the mammary pad of each mouse around the second right mammary gland. A week after tumor cell implantation, when the palpable mammary tumors develop, mice were injected intraperitoneally with either vehicle (normal saline) or 5-FU (25 mg/kg/b.w.) or W-2b (25 mg/kg/b.w.) in each alternative day for two weeks. Tumor sizes were measured in each alternate day after tumor cell injection, and the body weight was recorded once in a week. Mice were sacrificed on the 15th day after treatment initiation, and tumors were dissected out carefully from the mammary pad area.
# [2] = test system: HCT-116 cells; assay: SA-β-gal activity assay, HCT-116; format: cell-based, human; conditions: HCT-116, sub-toxic concentrations, five days
# Description: (§1) The procedure was followed as described previously with some modifications. Briefly, MCF7 and HCT-116 cells (0.4 × 10^6 per well) were seeded in six-well plates and treated with indicated concentrations of W-2b along with WA, vehicle and positive control doxorubicin for five days. Cells were accordingly washed twice with PBS, fixed with 4% paraformaldehyde for 5 min, rinsed twice with PBS and incubated with freshly prepared staining solution (40 mM citric acid/Na phosphate buffer, 5 mM K4[Fe(CN)6] 3H2O, 5 mM K3[Fe(CN)6], 150 mM sodium chloride, 2 mM magnesium chloride and 1 mg/ml X-gal in distilled water, pH 6.0) for 48 h at 37 °C. Stained cells were thoroughly washed and air dried in dark. Cells were then observed under bright field microscope (NIKON) for the SA-β-gal positive cells and images were captured at 20x magnification.
# [3] = test system: fR2 cells; assay: MTT cell viability assay, fR2 normal breast epithelial cells; format: cell-based, human; conditions: 48 h, read-out: Cytotoxicity IC50, fR2
# Description: (§2) The cell viability assay was performed according to the procedure previously described with minor modifications. Briefly, MCF7, HCT-116 and fR2 cells were plated in 96 well plates at a density of 5 × 10^3 cells per well and incubated overnight. […] MTT dye solution (2.5 mg/mL) was introduced to the cells in medium 4 h before the completion of the treatment period and the formed formazan crystals were solubilized with DMSO. Optical density was measured with the help of a UV-visible spectrophotometer coupled with microplate reader (TECAN, Infinite M200 Pro), the percent inhibition was calculated and IC50 values were determined with the help of GraphPad Prism software (GraphPad software Inc. CA, USA).
# (§3) Data were expressed as the mean ± standard deviation of three independent experiments performed and analyzed by Student’s t-test. IC50 values were determined with the help of GraphPad Prism software Version 5.0 (GraphPad Software, Inc., USA) by taking the log of inhibitor vs. response. A 2-sided value of *P < 0.05 was considered significant in all cases.
# [4] = as above; format: cell-based, human; conditions: human, fR2 normal breast epithelial cells, read-out: Cytotoxicity IC50, fR2
# Description: as §2, §3
# [5] = test system: MCF7 cells; assay: SA-β-gal activity assay, MCF7; format: cell-based, human; conditions: MCF7, sub-toxic concentrations, five days
# Description: as §1
# [6] = test system: HCT-116 cells; assay: Colony formation (clonogenic) assay, HCT-116; format: cell-based; conditions: Homo sapiens, 120 h; HCT-116, 1.5 µM, five days
# Description: (§4) The experiment was carried out according to the standardized protocol with some modifications. MCF7 and HCT-116 cells were trypsinized properly, seeded in 6 well plates at a density of 1 × 10^3 cells/well and incubated overnight. Then treatment was given to the cells with vehicle, doxorubicin and various concentrations of W-2b for five days. Cells were then washed, fixed with 4% paraformaldehyde for 10 min, rewashed twice and stained with 0.25% crystal violet solution for 1 h. The wells containing the cells were then washed thoroughly with distilled water to remove any extra stains and then air dried overnight. The plate was then observed under an inverted microscope and colonies from three random fields were counted, averaged and photographed with NIKON camera (D3100) at 4x magnification.
# [7] = test system: MCF7 cells; assay: Flow cytometric cell cycle analysis (propidium iodide), MCF7; format: cell-based, human; conditions: MCF7, 1.0 µM, 48 h; vehicle 13.03%
# Description: MCF7 cells were seeded at a density of 0.4 × 10^6 cells/well in 35 mm dishes and incubated overnight at 37 °C and 5% CO2. Next day, cells were treated with vehicle and W-2b at indicated concentrations for 48 h. They were then trypsinized, centrifuged at 2000 rpm for 3 min, washed twice with ice-cold PBS and fixed with ice-cold 70% ethanol (v/v) for 1 hour at 4 °C. Cells were then pelleted down at 2000 rpm for 3 min, washed with PBS and incubated first with 200 μg/ml of RNase A in PBS at 37 °C water bath for 90 min and then with 50 μg/mL of propidium iodide (PI) at room temperature for 30 min in dark. The samples were then analyzed by BD Accuri C6 flow cytometer (BD Biosciences).
# [8] = test system: HCT-116 cells; assay: MTT cell viability assay, HCT-116; format: cell-based, human; conditions: read-out: Cytotoxicity IC50, HCT-116
# Description: as §2, §3
# [9] = test system: MCF7 cells; assay: Colony formation (clonogenic) assay, MCF7; format: cell-based; conditions: Homo sapiens, 120 h; MCF7, 1.0 µM, five days
# Description: as §4
# [10] = test system: fR2 cells; assay: SA-β-gal staining, fR2; format: cell-based, human; conditions: fR2, sub-toxic doses 1–2 µM
# [11] = test system: MCF7 cells; assay: MTT cell viability assay, MCF7; format: cell-based, human; conditions: read-out: Cytotoxicity IC50, MCF7
# Description: as §2, §3
smiles,measurement,setting,value
"CC1=C(CO)C(=O)OC(C(C)C2CCC3C4CC5OC56C(O)C5ON=C(c7ccc([N+](=O)[O-])cc7)C5C(=O)C6(C)C4CCC23C)C1 (stereo not drawn) [W-2b, 4-nitrophenyl-2-isoxazoline withaferin A]",Inhibition in tumor volume,"[1]; each alternate day for two weeks, Balb/c mice",83.8%
same,Inhibition in tumor weight,"[1]; each alternate day for two weeks, vs normal saline group",91.2%
same,Tolerability of treated animals,[1]; two weeks,remained healthy without any serious side effects or mortality
same,SA-β-gal positive cells,[2],53%
same,IC50,[3],35500 ± 6120 nM
same,IC50 at 24 h,[4]; 24 h,39700 ± 7300 nM
same,IC50 at 72 h,[4]; 72 h,33900 ± 8230 nM
same,SA-β-gal positive cells,[5],58%
same,inhibition at 1.5 µM,[6],> 70%
same,Cells in G2/M phase,[7],45.5%
same,IC50,[8]; 48 h,1250 ± 156 nM
same,IC50,"[8]; Homo sapiens, HCT-116, 24 h, 24 h",1480 ± 129 nM
same,IC50,"[8]; Homo sapiens, HCT-116, 72 h, 72 h",1030 ± 330 nM
same,inhibition at 1 µM,[9],> 70%
same,SA-β-gal positive cells,[10],15–19%
same,IC50,[11]; 48 h,705 ± 59 nM
same,IC50,"[11]; Homo sapiens, MCF7, 24 h, 24 h",881 ± 52 nM
same,IC50,"[11]; Homo sapiens, MCF7, 72 h, 72 h",682 ± 75 nM
